Assay results published in paper PMC12114947, “Evaluation of Violacein Metabolic Stability and Metabolite Identification in Human, Mouse, and Rat Liver Microsomes” (Pharmaceutics, 2025).

Assay: In vitro metabolic stability in rat liver microsomes
Format: in vitro ADME
Protocol: After removal, a pool consisting of livers from five naïve male rats and five C57BL male mice was immediately placed in a 50 mM Tris-HCl buffer, pH 7.4, containing 150 mM KCl. The livers were diced with scissors and washed three times with buffer, followed by homogenization with 20 mL of buffer in a Potter-type homogenizer (three cycles, with each cycle comprising three grindings of 1 min each at 1000 rpm). The homogenate was centrifuged at 10,000× g for 15 min at 4 °C. The resulting supernatant was then ultracentrifuged at 100,000× g for 60 min at 4 °C to obtain the microsomal pellet, which was resuspended in 50 mM HEPES-HCl buffer, pH 7.4, containing 20% glycerol and 1 mM EDTA.
The metabolic stability of volacein was assessed as described by Godoi et al. and Antunes et al.. Aliquots (4 µL) of 100 µM violacein working solution and 96 µL of the NADPH-regenerating system, containing 1.1 mM NADP^+, 10 mM glucose-6-phosphate, 1 U/mL glucose-6-phosphate dehydrogenase, 5 mM sodium citrate, and 66 mM magnesium chloride in 100 mM phosphate buffer, pH 7.4, were transferred to propylene tubes and pre-incubated for 5 min in an MTC 100 thermo shaker incubator (Miulab, Zhejiang, China) at 300 rpm and 37 °C. Subsequently, the metabolic reactions were initiated by adding 100 μL of microsomal proteins from HLMs, RLMs, and MLMs at a concentration of 2 mg/mL to the pre-incubated shaking tubes, resulting in final concentrations of 2 μM for violacein and 1 mg/mL for microsomal proteins. In this experiment, seven incubation times were planned for each species (0, 3, 5, 15, 30, 60, and 120 min), in triplicate. At each time interval, the reactions were stopped by adding 400 μL of ice-cold acetonitrile spiked with 10 µM omeprazole (IS) to each tube. Finally, the samples were vortexed for 5 min in a BenchMixer^TM XL (Benchmark, NJ, USA) and centrifuged at 12,000× g for 15 min at 4 °C (Hettich® Universal 320 R, Tuttlingen, Germany). The supernatants were transferred to a 96-well plate and 8 μL was injected into the LC-MS/MS system (see Section 2.3).
All incubations were performed simultaneously with positive and negative controls. The positive controls were prepared by incubating dapaconazole at the same conditions as violacein (final concentrations: 2 μM) and its metabolic stability was compared with previous studies. Similarly, the negative controls were prepared by incubating violacein in buffer solution, in the absence of microsome and cofactor solutions.
Violacein was analyzed using LC-MS/MS (LC-QQQ MS, LCMS8045, Shimadzu, Kyoto, Japan). Chromatographic separation was achieved on a Raptor^TM Biphenyl column (2.1 × 100 mm, 2.7 μm) at 40 °C. The mobile phases consisted of water (mobile phase A) and methanol (mobile phase B), both containing 2 mM ammonium formate and 0.1% (v/v) formic acid. A flow rate of 0.3 mL/min was used with an elution gradient starting at 20% mobile phase B and holding for 0.2 min, followed by a linear increase to 95% mobile phase B over 2 min that was then maintained for 1 min, with a return to the initial condition in 0.2 min. The total chromatographic run time was 5 min.
In vitro t1/2 was calculated using to the following equation [60, 61]:(1) t1/2=ln(2)/k where k is the slope of the log-linear regression graph of the percentage of drug remaining as a function of time.
CLint, in vitro was calculated using to the following equation [60, 61]:(2) CLint, in vitro=0.693/t1/2×Vincubation/mmicrosomes where Vincubation indicates the volume of the incubation in μL and mmicrosomes indicates the mass of microsomal proteins added to the incubation solution in mg. […]

O=C1NC(c2c[nH]c3ccc(O)cc23)=C/C1=C1\C(=O)Nc2ccccc21 [violacein]
CLint, in vitro (RLMs): 38.41 µL/min/mg | Ln Z (RLMs, time 0 min): 4.605 | Z (%), remaining percentage of violacein (RLMs, time 0 min): 100% | Ln Z (RLMs, time 3 min): 4.495 | Z (%), remaining percentage of violacein (RLMs, time 3 min): 90% | Ln Z (RLMs, time 5 min): 4.101 | Z (%), remaining percentage of violacein (RLMs, time 5 min): 60% | Ln Z (RLMs, time 15 min): 3.832 | Z (%), remaining percentage of violacein (RLMs, time 15 min): 46% | Ln Z (RLMs, time 30 min): 3.371 | Z (%), remaining percentage of violacein (RLMs, time 30 min): 29% | Ln Z (RLMs, time 60 min): 2.549 | Z (%), remaining percentage of violacein (RLMs, time 60 min): 13% | Ln Z (RLMs, time 120 min): 1.899 | Z (%), remaining percentage of violacein (RLMs, time 120 min): 7% | Slope (k), metabolism rate constant (RLMs, ln remaining % vs incubation time): y = −0.0192x + 4.0344 r^2 = 0.9459 Slope (k) = 0.0192 | microsomal CLint at 2 µM (male, rat, rat liver microsomes, pH 7.4, RLMs): 38.4 µL/min/mg | CLint scaled at 2 µM (male, rat, rat liver microsomes, pH 7.4, rat, extrapolated from CLint, in vitro by allometric scaling, read-out: CLint, in vivo): 93.7 mL/min/kg | half-life at 2 µM (male, rat, rat liver microsomes, pH 7.4, RLMs, 2 μM violacein, 1 mg/mL microsomal protein, NADPH-regenerating system, 37 °C, n = 3, read-out: In vitro elimination half-life (t1/2)): 36 min | CLint, in vivo (rat, extrapolated from CLint, in vitro by allometric scaling): 93.72 mL/min/kg
